Structures are written as SMILES.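 In this assay, cells in 96-well plates receive the compound at five concentrations for 48 hours. Endpoints are linearly interpolated between the surrounding concentrations. TGI denotes the concentration required for complete inhibition of growth.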

Usually TGI stands for the concentration at which net growth stops. A higher TGI goes with less potent growth arrest.

Test systems include ACHN renal; DLD-1 colon; DMS 114 small cell lung; DMS 273 small cell lung; HL-60(TB) leukemia; KM20L2 colon; LXFL 529 NSCLC; SNB-78 CNS.
What all share (experiment): DTP human tumour cell line panel, 48 h

For `OCC(O)C(O)C(O)c1nn(-c2ccc(Cl)cc2)c2nc3cc(Cl)c(Cl)cc3nc12` (centres undefined), the concentration for total growth inhibition (TGI) in the assay with ACHN renal, with DLD-1 colon, in the assay with DMS 114 small cell lung, with DMS 273 small cell lung, in the assay with HL-60(TB) leukemia and in the assay with KM20L2 colon was more than 100 µM each time. Moreover, the figures for the TGI in the assay with LXFL 529 NSCLC and with SNB-78 CNS were more than 100 µM and 76.9 µM, respectively.
As for `CCc1c(Cc2[nH]c(Cc3[nH]c(C=O)c(C)c3CC)c(CC)c2CC)[nH]c(C=O)c1C`, the TGI in the assay with ACHN renal, in the assay with DLD-1 colon, in the assay with DMS 114 small cell lung, in the assay on DMS 273 small cell lung, with HL-60(TB) leukemia and with KM20L2 colon was more than 100 µM in each case. The total growth inhibition concentration (TGI) in the assay on LXFL 529 NSCLC and in the assay on SNB-78 CNS was more than 100 µM each time.
In the case of `CC1C[C@H](C)CC(C(O)CC2CC(=O)N(Cc3ccccc3)C(=O)C2)C1O` (some centres undefined), the TGI in the assay on ACHN renal, in the assay with DLD-1 colon, with DMS 114 small cell lung, with DMS 273 small cell lung, in the assay with HL-60(TB) leukemia and with KM20L2 colon was more than 100 µM throughout. The TGI in the assay with LXFL 529 NSCLC and with SNB-78 CNS was more than 100 µM in each case.
As to `COC(=O)/C=C(\C(=O)OC)c1c2c3c(cc(OC)c(OC)c3c3ccccc13)CCN2C`, the TGI is more than 100 µM in the assay on ACHN renal; more than 100 µM with DLD-1 colon; 80.7 µM with DMS 114 small cell lung; 50.9 µM in the assay on DMS 273 small cell lung; 56.3 µM in the assay with HL-60(TB) leukemia; more than 100 µM in the assay on KM20L2 colon. The TGI in the assay with LXFL 529 NSCLC and in the assay on SNB-78 CNS was more than 100 µM each time.
On to `O=C1c2ccccc2C(=O)N1CCN(CCN1C(=O)c2ccccc2C1=O)Cn1cccn1`, for which the TGI in the assay with ACHN renal is more than 100 µM; with DLD-1 colon it was more than 100 µM; in the assay with DMS 114 small cell lung, 38.3 µM; in the assay on DMS 273 small cell lung, more than 100 µM; with HL-60(TB) leukemia, 74.5 µM; in the assay on KM20L2 colon it was more than 100 µM. The TGI in the assay on LXFL 529 NSCLC and with SNB-78 CNS was more than 100 µM each time.
With `CC1=NOC(=O)/C1=C/c1cccc2ccccc12`, the TGI in the assay on ACHN renal, with DLD-1 colon, in the assay on DMS 114 small cell lung, in the assay with DMS 273 small cell lung, in the assay on HL-60(TB) leukemia and in the assay on KM20L2 colon was more than 100 µM in each case. In addition, the TGI in the assay with LXFL 529 NSCLC and with SNB-78 CNS was more than 100 µM throughout.
`O=C(O)C[C@H]1CCCCC12CCOC2=O` (some centres undefined): the TGI in the assay on ACHN renal, with DLD-1 colon, with DMS 114 small cell lung, in the assay with DMS 273 small cell lung, in the assay with HL-60(TB) leukemia and in the assay with KM20L2 colon was more than 100 µM in each case. Besides, the total growth inhibition concentration (TGI) in the assay with LXFL 529 NSCLC and with SNB-78 CNS was more than 100 µM in each case.
With `O=C1CCC2CC(C(=O)c3ccccc3)CCC2CN1` (centres undefined) (tested in a mixture with another compound), the TGI in the assay with ACHN renal, in the assay on DLD-1 colon, in the assay on DMS 114 small cell lung, in the assay on DMS 273 small cell lung, with HL-60(TB) leukemia and in the assay with KM20L2 colon was more than 100 µM in each case. The TGI with LXFL 529 NSCLC and with SNB-78 CNS was more than 100 µM throughout.
